Residues, ends and D or L forms follow the SMILES beside them.
System: E. coli TOP10
Experiment: microarray transcription profile of E. coli TOP10 expressing Novispirin G10 (pDRS5-novispirin, arabinose induced) relative to control strain pBAD gIII A
Type: cell-based, Escherichia coli
Procedure: In order to obtain a transcriptional profile of E. coli expressing Novispirin G10, 2×10 mL sterile LB media (10 g/L Bactotryptone, 5 g/L Yeast extract, and 10 g/L NaCl) containing 100 mg/L ampicillin was inoculated with E. coli TOP10 harbouring pDRS5-novispirin and pBAD gIII A, respectively. These cultures were grown overnight at 37° C. at 180 rpm. The overnight cultures were diluted 1/100 into fresh sterile RM media (2% Casamino Acids, 0.2% glycerol, 1 mM MgCl2, 0.1 mM thiamine, 6 g/L Na2HPO4, 3 g/L KH2PO4.2H2O, 0.5 g/L NaCl, 0.1 g/L NH4Cl at pH 7.4) supplemented with 100 mg/L ampicillin and 0.1% arabinose. 100 mL of each culture was grown at 37° C., 240 rpm for 4.5 hours before being harvested by poured into centrifugation tubes containing 10 mL pre-frozen milliQ water and immediate centrifugation at 4200 g for 15 minutes at 4° C. Immediately hereafter, the supernatant was decanted and the cell […] was frozen at −20° C. for storage until RNA preparation was initiated.
Total RNA was isolated from the two E. coli (expressing either Novispirin G10 or a control peptide) cultures by use of the High Pure RNA Isolation kit (Roche, cat #1 828 665) according to the manufacturers instructions. Residual DNA was removed on-column with RNase-free DNase. Labelled samples were prepared from 30 μg of total bacterial RNA. Fluorescent first strand cDNA was prepared by random primed reverse transcription (Superscript II; Life Technologies) by use of random hexamers for cDNA synthesis. 2 μl (20 μg) of random primer was mixed with 15 μl (30 μg) of total RNA, incubated for 5 min at 70° C., and cooled on ice. To each sample was added 5× first strand buffer (6 μl), 0.1 M DTT (3 μl), dNTP mix (5 mM dATP, dGTP and dTTP and 2 mM dCTP) (1 μl), RNaseOut (1 μl), Superscript II reverse transcriptase (2 μl) and Cy-dCTP (3 μl). Reverse transcription was carried out at 42° C. for 1 hr. RNA was removed by addition of 10 μl NaOH (1 M) and incubation at 65° C. for 10 min. The samples were neutralised by addition of 10 μl HCl (1 M). Cy3 and Cy5 cDNA samples were mixed and immediately purified with a GFX PCR DNA and Gel Band Purification Kit (Amersham Biosciences).
Slides were pre-hybridised at 42° C. for 45 min in a solution containing 4×SSC+0.5% SDS+1% BSA and dried by centrifugation. Hybridizations were in a volume of 25 μl under a supported cover slip at 42° C. for 16-18 h at high humidity. The hybridisation mixture was labelled cDNA in a formamide-based hybridisation buffer (MWG—supplied with the pan-arrays). Cover slip and supports were gently removed (2×SSC in a wash tray) and arrays were washed by immersion into 2×SSC+0.1% SDS for 5 min, 1×SSC+0.1% SDS for 5 min, 0.5×SSC for 5 min and 1× millipore water for 10 sec and dried by centrifugation. Slides were scanned on a GMS 418 scanner to detect Cy3 and Cy5 fluorescence. Data analysis was carried out using ImaGene 5.0 and GeneSight 3.5 from BioDiscovery (www.biodiscovery.com). Two biological replicate experiments with four replicate hybridisations in each experiment were carried out for generation of data.
Pan E. coli K12 Arrays from MWG Biotech were used in this study (lot No.: 020206). The 4239 E. coli K12 specific oligonucleotide probes present on this glass-based DNA chip represent the complete Escherichia coli (K12) genome
Gene expression data was analyzed using the GeneSight 4.1.5 software from BioDiscovery. Data was prepared using local background correction, removal of flagged spots (contaminated background or signal), floor value raising data to a minimum value of 20, calculation of ratio, log(2) transformation of ratios, print-tip lowess normalization, and finally combination of replicate spot.

**Q.** What does the source list for CC[C@H](C)[C@H](NC(=O)CNC(=O)[C@H](CCCCN)NC(=O)[C@H](CCCNC(=N)N)NC(=O)[C@@H](NC(=O)[C@@H](NC(=O)[C@H](CCCNC(=N)N)NC(=O)[C@H](CCCNC(=N)N)NC(=O)[C@H](CC(C)C)NC(=O)[C@H](CC(N)=O)NC(=O)[C@@H](N)CCCCN)[C@@H](C)CC)[C@@H](C)CC)C(=O)N[C@@H](Cc1c[nH]cn1)C(=O)N[C@H](C(=O)N[C@H](C(=O)N[C@@H](CCCCN)C(=O)N[C@@H](CCCCN)C(=O)N[C@@H](Cc1ccc(O)cc1)C(=O)NCC(=O)O)[C@@H](C)CC)[C@@H](C)CC [Novispirin G10] (H-KNLRRIIRKGIHIIKKYG-OH; N-terminus assumed)?
**A.** ratio, gene abrB: −6.2; ratio, gene ackA: −4.8; ratio, gene adhP: 3.8; ratio, gene aer: 14.3; ratio, gene agaZ: −2.9; ratio, gene ais: 14.1; ratio, gene amyA: 5.8; ratio, gene ansB: −3.8; ratio, gene appB: 47.2; ratio, gene appC: 3.5; ratio, gene argA: 3.8; ratio, gene aspA: −5.7; ratio, gene asr: 19.2; ratio, gene atpC: 3.1; ratio, gene b0919: −2.8; ratio, gene b1044: −3.0; ratio, gene b1354: 3.0; ratio, gene b1355: 5.0; ratio, gene b1362: −14.9; ratio, gene b1394: 2.8; ratio, gene b1408: 3.3; ratio, gene b1422: 3.0; ratio, gene b1450: 4.8; ratio, gene b1454: 9.7; ratio, gene b1518: −3.8; ratio, gene b1520: 3.2; ratio, gene b1582: 6.8; ratio, gene b1583: 4.3; ratio, gene b1593: −5.0; ratio, gene b1605: 3.0; ratio, gene b1627: 3.5; ratio, gene b1643: 4.5; ratio, gene b1691: 3.7; ratio, gene b1721: 98.3; ratio, gene b1724: 9.1; ratio, gene b1825: 8.7; ratio, gene b1826: 4.6; ratio, gene b1836: 6.9; ratio, gene b1837: 5.3; ratio, gene b1903: −3.1; ratio, gene b1953: 3.8; ratio, gene b1995: −3.1; ratio, gene b2097: 8.1; ratio, gene b2253: 8.4; ratio, gene b2254: 5.5; ratio, gene b2256: 4.0; ratio, gene b2324: −4.0; ratio, gene b2372: 3.8; ratio, gene b2383: −4.1; ratio, gene b2809: 3.4; ratio, gene b2833: 5.1; ratio, gene b2879: 2.9; ratio, gene b3023: 3.9; ratio, gene b3100: 9.9; ratio, gene blc: 4.9; ratio, gene bolA: 13.0; ratio, gene btuE: 3.4; ratio, gene btuR: −2.8; ratio, gene celF: 4.1; ratio, gene cheR: 6.8; ratio, gene clpB: −3.6; ratio, gene codA: 3.4; ratio, gene crcA: 11.7; ratio, gene csgF: 2.8; ratio, gene dacC: 3.6; ratio, gene dcuC: −6.2; ratio, gene deoA: 3.8; ratio, gene deoB: 3.0; ratio, gene deoR: 2.9; ratio, gene dgt: −2.7; ratio, gene dksA: 4.1; ratio, gene dnaJ: −3.0; ratio, gene dnaK: −2.8; ratio, gene dps: 4.4; ratio, gene ebgR: −3.0; ratio, gene ecpD: −3.7; ratio, gene elaB: 9.7; ratio, gene entF: −3.2; ratio, gene evgA: −2.9; ratio, gene fadL: −2.6; ratio, gene fdnG: −3.3; ratio, gene fecE: −2.7; ratio, gene fecR: −3.6; ratio, gene feoA: −6.1; ratio, gene feoB: −5.2; ratio, gene fepC: −2.7; ratio, gene fhuE: −2.7; ratio, gene fimC: 3.8; ratio, gene flgG: −2.6; ratio, gene flhB: −2.8; ratio, gene flhD: −2.7; ratio, gene fliD: 5.4; ratio, gene fliJ: −3.1; ratio, gene fliQ: 4.5; ratio, gene folA: 3.2; ratio, gene frdC: −5.0; ratio, gene frwB-r: 4.0; ratio, gene gabP: 8.2; ratio, gene gabT: 6.5; ratio, gene gapC_1: 3.3; ratio, gene gatA: −3.0; ratio, gene gatC: −2.7; ratio, gene gatD: −3.2; ratio, gene gatY: −6.2; ratio, gene gatz: −6.8; ratio, gene gcvH: −3.9; ratio, gene gcvT: −4.8; ratio, gene glk: 3.4; ratio, gene glpA: −2.7; ratio, gene glpA-r: −2.9; ratio, gene glpB: −7.8; ratio, gene glpC: −5.9; ratio, gene glpT: −3.6; ratio, gene gltB: −2.7; ratio, gene gntT: −4.3; ratio, gene grpE: −3.0; ratio, gene hdeA: 7.7; ratio, gene hdeB: 7.9; ratio, gene hdeD: 4.3; ratio, gene hemL: 8.3; ratio, gene hisC: −4.5; ratio, gene hscA: 3.2; ratio, gene hslU: −3.2; ratio, gene hslV: −3.0; ratio, gene hybB: −2.9; ratio, gene hyfD: −2.9; ratio, gene hypB: −3.4; ratio, gene hypC: −3.0; ratio, gene hypE: −3.9; ratio, gene ibpB: −6.5; ratio, gene katE: 9.9; ratio, gene lacY: −2.7; ratio, gene lacZ: −9.1; ratio, gene lon: −2.9; ratio, gene malE: 4.6; ratio, gene malM: 4.0; ratio, gene mcrA: 3.9; ratio, gene menA: −2.9; ratio, gene menB: 2.9; ratio, gene metE: 4.0; ratio, gene mfd-r: −4.6; ratio, gene mglC: −2.6; ratio, gene mgtA: 7.5; ratio, gene minD: −2.9; ratio, gene mlc: −2.6; ratio, gene mopA: −3.6; ratio, gene mopB: −9.1; ratio, gene mrr: 2.9; ratio, gene nagA: 3.7; ratio, gene nagB: 8.8; ratio, gene napD: −3.5; ratio, gene napF: −3.2; ratio, gene napH: −7.9; ratio, gene narU: 15.1; ratio, gene narX: −4.0; ratio, gene narY: 11.0; ratio, gene narZ: 4.9; ratio, gene ndh: 3.1; ratio, gene nirB: −2.9; ratio, gene nirC: −3.0; ratio, gene nirD: −5.7; ratio, gene nmpC: −6.6; ratio, gene nrfA: −12.7; ratio, gene ompF: −4.5; ratio, gene ompX: 4.7; ratio, gene osmC: 7.2; ratio, gene osmE: 11.7; ratio, gene osmY: 6.4; ratio, gene otsA: 5.2; ratio, gene otsB: 5.6; ratio, gene pepB: 4.7; ratio, gene pheP: 3.4; ratio, gene phnE: 4.6; ratio, gene phoP: 2.8; ratio, gene phoQ: 3.7; ratio, gene potG: 4.0; ratio, gene poxB: 3.3; ratio, gene pphA: 5.2; ratio, gene proW: 7.9; ratio, gene pspA: 6.7; ratio, gene pspB: 6.9; ratio, gene pspC: 15.8; ratio, gene pspD: 13.5; ratio, gene pspE: 9.4; ratio, gene pssA: −2.8; ratio, gene ptsP-r: −3.9; ratio, gene pyrE: 4.2; ratio, gene queA: −2.9; ratio, gene rcsA: −2.8; ratio, gene rfaJ: −2.6; ratio, gene rfaP: −3.0; ratio, gene rmf-r: 3.9; ratio, gene rnt: 3.9; ratio, gene rpiR: −3.1; ratio, gene rpoB-r: 2.8; ratio, gene rpsV: 5.2; ratio, gene rstB: 3.6; ratio, gene sfcA: 5.8; ratio, gene sfmC: 11.4; ratio, gene sfsA: 6.4; ratio, gene slp: 3.6; ratio, gene smp: −3.2; ratio, gene sohA: 4.3; ratio, gene speG: 3.8; ratio, gene srlA: −2.7; ratio, gene srlR: −2.6; ratio, gene talA: 11.7; ratio, gene tdcB: −2.7; ratio, gene tdcC: −5.1; ratio, gene thrB: 3.3; ratio, gene tktB: 26.5; ratio, gene tolC: 3.9
